Laboratory results from publication PMC10254657, “Efficient pH-Responsive Nano-Drug Delivery System Based on Dynamic Boronic Acid/Ester Transformation” (Molecules, 2023).

Legend:
DU145 cells = assay: In vitro cytotoxicity by MTT assay; assay type: cell-based; conditions: Homo sapiens, DU-145, 24 h (Figure 5 legend) / 48 h (method), read-out: half-maximal inhibitory concentrations (IC50)
Procedure: Human prostate cancer cells (DU145) were cultivated in DMEM supplemented with fetal bovine serum (FBS, 10%), streptomycin (100 μg/mL), and penicillin (100 units/mL). The cells were incubated in a humid atmosphere with 5% CO2 at 37 °C.
The in vitro cytotoxicities of PTX-loaded NPs were measured by MTT assays. Cells were seeded in 96-well plates (5000–8000 cells per well) and incubated at 37 °C. After 24 h, the medium was replaced with 180 μL of fresh medium, and the cells were treated with serial dilutions of PTX/PBA NPs, PTX/mPEG-PAL NPs, blank PBA NPs, and blank mPEG-PAL NPs (20 μL) for 48 h at 37 °C. At the end of the incubation, to each well was added […] of MTT solution (5 mg/mL in PBS). After 4 h, the MTT solution was removed from the wells, followed by the addition of supplementary DMSO (100 μL) to dissolve the purple MTT formazan crystals. The absorbance of each well was determined at 490 nm on a microplate reader (Flexstation 3, Molecular Devices LLC, Sunnyvale, CA, USA).

[1] = In vivo pharmacokinetics after intravenous administration; conditions: ICR mice
Procedure: Pharmacokinetics was evaluated in ICR mice (about 20 g). […] A total of 0.1 mL of fresh blood was collected through orbital at appropriate intervals, put into a centrifuge tube pretreated with heparin sodium, and centrifugated (5000 rpm, 10 min). A total of 100 µL acetonitrile was added to 50 µL of supernatant collected to extract PTX and precipitate protein in serum, and the mixture was centrifugated for another 10 min (1200 rpm). The amounts of PTX in the collected supernatant were determined by HPLC (acetonitrile:water = 50:50 (v:v); flow rate: 1.0 mL/min; wavelength: 227 nm).

[2] = Body weight of tumor-bearing mice during treatment; assay type: in vivo, BALB/c nude mice; conditions: 7.5 mg/kg i.v. on days 0, 3 and 6
Procedure: (§1) BALB/c nude mice (4–5 weeks old) were used for the evaluation of the antitumor activities of the nanotherapies. The human prostate cancer cell line DU145 was grown to 80% confluence in 90 mm tissue culture dishes. After cell harvesting, the cells were resuspended in PBS at 4 °C to reach a final concentration of 1.5 × 10^7 cells/mL. The right flanks of the BALB/c nude mice were subcutaneously injected with 200 μL of a cell suspension containing 3 × 10^6 cells. At 4 days after implantation, the tumors reached approximately 150 mm^3 in volume, and then the mice were randomly divided into four groups (n = 6 mice per group). Mice bearing DU145 tumor xenografts were injected intravenously with PBS, Taxol, PTX/PBA NPs, and PTX/mPEG-PAL NPs at 7.5 mg/kg three times on days 0, 3, and 6. Tumor volumes and body weights were monitored and recorded once every three days. The lengths (L) and widths (W) of the tumors were measured with calipers, and the tumor volume was calculated by the following formula: V = (L × W^2)/2, where W is shorter than L.

human DU145 tumor model = conditions: 7.5 mg/kg i.v. on days 0, 3 and 6
Procedure: as §1

DU145 tumor xenografts = assay: TUNEL assay of the tumors; assay type: in vivo, BALB/c nude mice; conditions: compared with PBS; tumors excised at 15 d
Excerpt: The tumor tissue and other organs from the sacrificed mice were excised at 15 d of the treatments with various drugs. After being fixed in n 4% formaldehyde, dehydrated with ethanol, and embedded in paraffin, the tumor tissue and organs were further sectioned into 5 μm slices for hematoxylin and eosin (H&E) staining and the terminal deoxynucleotidyl transferase-mediated dUTP nick-end labeling (TUNEL) staining assay. The H&E-stained tissues and TUNEL-stained tissues were imaged by fluorescence microscopy (NIKON ECLIPSE C1, Tokyo, Japan).

t1/2α [1]: 3.24 min
AUC(0-inf) ([1]; mouse, plasma): 85.4 ng·h/mL
AUC(0-t) ([1]; mouse, plasma): 67.5 ng·h/mL
Cmax ([1]; mouse, plasma): 94.6 ng/mL
half-life ([1]; mouse, plasma, read-out: t1/2β (converted)): 26 min
SMILES: CC(=O)O[C@H]1C(=O)[C@@]2(C)[C@H]([C@H](OC(=O)c3ccccc3)[C@]3(O)C[C@H](OC(=O)[C@H](O)[C@@H](NC(=O)c4ccccc4)c4ccccc4)C(C)=C1C3(C)C)[C@]1(OC(C)=O)CO[C@@H]1C[C@@H]2O [Taxol, Paclitaxel]
IC50 (DU145 cells): 3.04 nM
body weight of mice [2]: remained almost unchanged in the first 9 days and then showed a slow uptrend
therapeutic efficacy (tumor photograph and weight at the end of treatment) (human DU145 tumor model; end of treatment): better therapeutic efficacy than PBS
tumor growth (tumor volume) (human DU145 tumor model; first 6 days): completely inhibited
cell apoptosis rate in tumors (TUNEL) (DU145 tumor xenografts): dramatic increase
